Laboratory results: ChEMBL document CHEMBL1132169 (J Med Chem, 1999)

Legend:
[1] = molecular target: T1, Sodium-dependent dopamine transporter (Rattus norvegicus, UniProt P23977); test: Inhibitory binding activity against rat striatal tissue using [3H][…] as the radioligand.; format: tissue-based, Striatum
[2] = molecular target: T1, Sodium-dependent dopamine transporter; test: Inhibition of dopamine uptake into rat striatal tissue, using [3H]- dopamine as the radioligand.; format: tissue-based, Striatum
[3] = molecular target: Sodium-dependent dopamine transporter (Rattus norvegicus) (UniProt P23977); test: Discrimination ratio of compound is the ratio of inhibitory activity against [3H]dopamine uptake over [3H][…] binding
Sodium-dependent dopamine transporter (Rattus norvegicus), sequence (P23977 whole entry): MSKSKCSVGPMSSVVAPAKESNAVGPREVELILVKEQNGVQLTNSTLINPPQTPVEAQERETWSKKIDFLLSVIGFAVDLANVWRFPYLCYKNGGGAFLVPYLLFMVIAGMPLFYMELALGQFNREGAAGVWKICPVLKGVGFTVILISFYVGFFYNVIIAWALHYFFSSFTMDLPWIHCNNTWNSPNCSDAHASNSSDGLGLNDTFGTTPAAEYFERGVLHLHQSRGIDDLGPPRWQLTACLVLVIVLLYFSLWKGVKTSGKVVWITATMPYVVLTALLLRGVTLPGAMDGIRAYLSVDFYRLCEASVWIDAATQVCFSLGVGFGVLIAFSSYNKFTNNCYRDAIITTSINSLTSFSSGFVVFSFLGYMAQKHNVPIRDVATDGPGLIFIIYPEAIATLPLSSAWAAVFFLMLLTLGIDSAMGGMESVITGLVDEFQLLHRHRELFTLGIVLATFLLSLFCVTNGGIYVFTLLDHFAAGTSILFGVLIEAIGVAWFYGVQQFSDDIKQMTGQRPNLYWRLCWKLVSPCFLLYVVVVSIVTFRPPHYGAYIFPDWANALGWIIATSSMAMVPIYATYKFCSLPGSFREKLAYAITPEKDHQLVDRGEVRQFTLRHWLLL

T1 sequence (P23977 whole entry): as above

| SMILES | IC50 [1] | IC50 [2] | Discrimination ratio [3] |
| --- | --- | --- | --- |
| CN(C)CC1C2CCC(C2)C1c1ccccc1 (stereo in doubt; 14a) [listing 1 of 2 here] | 2140 nM | 2750 nM | – |
| NCC1C2CCC(C2)C1c1ccc(Cl)cc1 (stereo in doubt; 9c) [listing 1 of 2 here] | 46 nM | 230 nM | – |
| CN(C)CC1C2CCC(C2)C1c1ccccc1 (stereo in doubt; 10a) [listing 1 of 2 here] | 515 nM | 1100 nM | – |
| NCC1C2CCC(C2)C1c1ccc(Cl)cc1 (stereo in doubt; 15c) [listing 1 of 2 here] | 7.7 nM | 34.9 nM | – |
| NCC1C2CCC(C2)C1c1ccccc1 (stereo in doubt; 13a) [listing 1 of 2 here] | 816 nM | 3500 nM | – |
| NCC1C2CCC(C2)C1c1cccc(Cl)c1 (stereo in doubt; 11b) [listing 1 of 2 here] | 239 nM | 780 nM | – |
| NCC1C2CCC(CC2)C1c1ccccc1 (stereo in doubt; 7a) [listing 1 of 2 here] | 270 nM | 1480 nM | – |
| NCC1C2CCC(CC2)C1c1ccc(Cl)c(Cl)c1 (stereo in doubt; 7d) [listing 1 of 2 here] | – | – | 1.6 |
| NCC1C2CCC(C2)C1c1ccc(Cl)c(Cl)c1 (stereo in doubt; 11d) [listing 1 of 2 here] | 32.7 nM | 93.6 nM | – |
| NCC1C2CCC(C2)C1c1ccc(Cl)c(Cl)c1 (stereo in doubt; 9d) [listing 1 of 2 here] | 11.6 nM | 58 nM | – |
| NCC1C2CCC(C2)C1c1ccc(Cl)c(Cl)c1 (stereo in doubt; 13d) [listing 1 of 2 here] | 21.3 nM | 98.7 nM | – |
| COc1ccccc1C1C2CCC(C2)C1CN (stereo in doubt; 11e) [listing 1 of 2 here] | – | – | 5.3 |
| NCC1C2CCC(CC2)C1c1ccc(Cl)c(Cl)c1 (stereo in doubt; 7d) [listing 2 of 2 here] | 21.5 nM | 34 nM | – |
| NCC1C2CCC(C2)C1c1ccc(Cl)cc1 (stereo in doubt; 15c) [listing 2 of 2 here] | – | – | 4.5 |
| NCC1C2CCC(CC2)C1c1ccc(Cl)cc1 (stereo in doubt; 7c) [listing 1 of 2 here] | 12.9 nM | 68.3 nM | – |
| CN(C)CC1C2CCC(CC2)C1c1ccc(Cl)c(Cl)c1 (stereo in doubt; 6d) [listing 1 of 2 here] | – | – | 2.6 |
| NCC1C2CCC(C2)C1c1ccccc1 (stereo in doubt; 9a) [listing 1 of 2 here] | – | – | 6.5 |
| NCC1C2CCC(C2)C1c1ccc(Cl)cc1 (stereo in doubt; 13c) [listing 1 of 2 here] | 65.3 nM | 348 nM | – |
| NCC1C2CCC(C2)C1c1ccccc1 (stereo in doubt; 15a) [listing 1 of 2 here] | – | – | 3.5 |
| COc1ccc(C2C3CCC(C3)C2CN)cc1 (stereo in doubt; 11g) [listing 1 of 2 here] | 1700 nM | 7120 nM | – |
| NCC1C2CCC(C2)C1c1ccc(Cl)c(Cl)c1 (stereo in doubt; 9d) [listing 2 of 2 here] | – | – | 5 |
| COc1cccc(C2C3CCC(C3)C2CN)c1 (stereo in doubt; 9f) [listing 1 of 2 here] | 8820 nM | 29300 nM | – |
| CN(C)CC1C2CCC(CC2)C1c1ccc(Cl)c(Cl)c1 (stereo in doubt; 8d) [listing 1 of 2 here] | – | – | 2.1 |
| CN(C)CC1C2CCC(CC2)C1c1cccc(Cl)c1 (stereo in doubt; 8b) [listing 1 of 2 here] | – | – | 3.3 |
| CN(C)CC1C2CCC(CC2)C1c1ccc(Cl)c(Cl)c1 (stereo in doubt; 6d) [listing 2 of 2 here] | 21.3 nM | 56.3 nM | – |

| SMILES | IC50 [1] | IC50 [2] | Discrimination ratio [3] |
| --- | --- | --- | --- |
| CN(C)CC1C2CCC(CC2)C1c1cccc(Cl)c1 (stereo in doubt; 6b) [listing 1 of 2 here] | – | – | 5.1 |
| NCC1C2CCC(CC2)C1c1ccc(Cl)cc1 (stereo in doubt; 5c) [listing 1 of 2 here] | 71.4 nM | 375 nM | – |
| NCC1C2CCC(CC2)C1c1ccc(Cl)cc1 (stereo in doubt; 5c) [listing 2 of 2 here] | – | – | 5.2 |
| CN(C)CC1C2CCC(C2)C1c1ccccc1 (stereo in doubt; 10a) [listing 2 of 2 here] | – | – | 2.1 |
| NCC1C2CCC(C2)C1c1ccccc1 (stereo in doubt; 9a) [listing 2 of 2 here] | 340 nM | 2220 nM | – |
| NCC1C2CCC(C2)C1c1ccc(Cl)cc1 (stereo in doubt; 9c) [listing 2 of 2 here] | – | – | 5 |
| CN(C)CC1C2CCC(CC2)C1c1ccc(Cl)c(Cl)c1 (stereo in doubt; 8d) [listing 2 of 2 here] | 14.2 nM | 29.3 nM | – |
| NCC1C2CCC(CC2)C1c1cccc(Cl)c1 (stereo in doubt; 5b) [listing 1 of 2 here] | – | – | 4.7 |
| CN(C)CC1C2CCC(C2)C1c1ccccc1 (stereo in doubt; 14a) [listing 2 of 2 here] | – | – | 1.3 |
| NCC1C2CCC(C2)C1c1ccccc1 (stereo in doubt; 13a) [listing 2 of 2 here] | – | – | 4.3 |
| COc1ccc(C2C3CCC(C3)C2CN)cc1 (stereo in doubt; 11g) [listing 2 of 2 here] | – | – | 4.2 |
| COc1ccc(C2C3CCC(C3)C2CN)cc1 (stereo in doubt; 9g) [listing 1 of 2 here] | – | – | 4.8 |
| NCC1C2CCC(C2)C1c1ccccc1 (stereo in doubt; 11a) [listing 1 of 2 here] | 2900 nM | 8850 nM | – |
| COc1ccc(C2C3CCC(C3)C2CN)cc1 (stereo in doubt; 13g) [listing 1 of 2 here] | 495 nM | 2260 nM | – |
| CN(C)CC1C2CCC(CC2)C1c1cccc(Cl)c1 (stereo in doubt; 8b) [listing 2 of 2 here] | 86 nM | 283 nM | – |
| NCC1C2CCC(CC2)C1c1ccc(Cl)c(Cl)c1 (stereo in doubt; 5d) [listing 1 of 2 here] | – | – | 2.6 |
| NCC1C2CCC(CC2)C1c1cccc(Cl)c1 (stereo in doubt; 7b) [listing 1 of 2 here] | 117 nM | 430 nM | – |
| NCC1C2CCC(C2)C1c1ccc(Cl)c(Cl)c1 (stereo in doubt; 11d) [listing 2 of 2 here] | – | – | 2.9 |
| CN(C)CC1C2CCC(C2)C1c1ccccc1 (stereo in doubt; 12a) [listing 1 of 2 here] | – | – | 1.7 |
| NCC1C2CCC(C2)C1c1cccc(Cl)c1 (stereo in doubt; 11b) [listing 2 of 2 here] | – | – | 3.3 |
| NCC1C2CCC(CC2)C1c1ccc(Cl)cc1 (stereo in doubt; 7c) [listing 2 of 2 here] | – | – | 5.3 |
| NCC1C2CCC(CC2)C1c1ccccc1 (stereo in doubt; 5a) [listing 1 of 2 here] | 1200 nM | 5930 nM | – |
| NCC1C2CCC(C2)C1c1ccccc1 (stereo in doubt; 11a) [listing 2 of 2 here] | – | – | 3.1 |
| CN(C)CC1C2CCC(CC2)C1c1ccccc1 (stereo in doubt; 8a) [listing 1 of 2 here] | – | – | 3.1 |
| NCC1C2CCC(C2)C1c1cccc(Cl)c1 (stereo in doubt; 9b) [listing 1 of 2 here] | 149 nM | 758 nM | – |

| SMILES | IC50 [1] | IC50 [2] | Discrimination ratio [3] |
| --- | --- | --- | --- |
| COc1ccccc1C1C2CCC(C2)C1CN (stereo in doubt; 9e) [listing 1 of 2 here] | 11600 nM | 36600 nM | – |
| COc1ccccc1C1C2CCC(C2)C1CN (stereo in doubt; 9e) [listing 2 of 2 here] | – | – | 3.1 |
| NCC1C2CCC(C2)C1c1ccc(Cl)cc1 (stereo in doubt; 11c) [listing 1 of 2 here] | 207 nM | 593 nM | – |
| CN(C)CC1C2CCC(C2)C1c1ccccc1 (stereo in doubt; 12a) [listing 2 of 2 here] | 2510 nM | 4330 nM | – |
| CN(C)CC1C2CCC(CC2)C1c1ccccc1 (stereo in doubt; 6a) [listing 1 of 2 here] | – | – | 4.4 |
| NCC1C2CCC(CC2)C1c1ccccc1 (stereo in doubt; 7a) [listing 2 of 2 here] | – | – | 5.5 |
| COc1ccc(C2C3CCC(C3)C2CN)cc1 (stereo in doubt; 9g) [listing 2 of 2 here] | 1160 nM | 5550 nM | – |
| CN(C)CC1C2CCC(CC2)C1c1ccccc1 (stereo in doubt; 6a) [listing 2 of 2 here] | 191 nM | 840 nM | – |
| COc1cccc(C2C3CCC(C3)C2CN)c1 (stereo in doubt; 11f) [listing 1 of 2 here] | 2010 nM | 6560 nM | – |
| NCC1C2CCC(CC2)C1c1cccc(Cl)c1 (stereo in doubt; 7b) [listing 2 of 2 here] | – | – | 3.7 |
| COc1ccccc1C1C2CCC(C2)C1CN (stereo in doubt; 11e) [listing 2 of 2 here] | 1480 nM | 7860 nM | – |
| NCC1C2CCC(C2)C1c1cccc(Cl)c1 (stereo in doubt; 9b) [listing 2 of 2 here] | – | – | 5.1 |
| COc1cccc(C2C3CCC(C3)C2CN)c1 (stereo in doubt; 9f) [listing 2 of 2 here] | – | – | 3.3 |
| COc1ccc(C2C3CCC(C3)C2CN)cc1 (stereo in doubt; 13g) [listing 2 of 2 here] | – | – | 4.6 |
| NCC1C2CCC(CC2)C1c1ccc(Cl)c(Cl)c1 (stereo in doubt; 5d) [listing 2 of 2 here] | 37.5 nM | 97.5 nM | – |
| COc1cccc(C2C3CCC(C3)C2CN)c1 (stereo in doubt; 11f) [listing 2 of 2 here] | – | – | 3.3 |
| CN(C)CC1C2CCC(CC2)C1c1ccccc1 (stereo in doubt; 8a) [listing 2 of 2 here] | 313 nM | 980 nM | – |
| NCC1C2CCC(C2)C1c1ccc(Cl)cc1 (stereo in doubt; 11c) [listing 2 of 2 here] | – | – | 2.9 |
| NCC1C2CCC(CC2)C1c1ccccc1 (stereo in doubt; 5a) [listing 2 of 2 here] | – | – | 5 |
| NCC1C2CCC(C2)C1c1ccc(Cl)c(Cl)c1 (stereo in doubt; 13d) [listing 2 of 2 here] | – | – | 4.6 |
| NCC1C2CCC(CC2)C1c1cccc(Cl)c1 (stereo in doubt; 5b) [listing 2 of 2 here] | 204 nM | 960 nM | – |
| NCC1C2CCC(C2)C1c1ccccc1 (stereo in doubt; 15a) [listing 2 of 2 here] | 251 nM | 875 nM | – |
| NCC1C2CCC(C2)C1c1ccc(Cl)cc1 (stereo in doubt; 13c) [listing 2 of 2 here] | – | – | 5.3 |
| CN(C)CC1C2CCC(CC2)C1c1cccc(Cl)c1 (stereo in doubt; 6b) [listing 2 of 2 here] | 36.8 nM | 186 nM | – |
